Data published in patent publication US8409820B2, “Kinase sensors” (Massachusetts Institute of Technology, priority 2009, dated 2013).

Key:
Type in all cases: physicochemical
[1] = Fluorescence analysis of 8-hydroxyquinoline derivatives in the presence of excess Mg2+ under buffered aqueous conditions; conditions: 10 μM compound; for λem / λex: 10 mM MgCl2, 150 mM NaCl, 50 mM HEPES (pH 7.4), 25° C.
Procedure: (§1) This example describes the synthesis and screening of Oxn derivatives. A selection of substituted hydroxyquinoline derivatives related to a sulfonamide derivative (FIG. 1, complex 1), but bearing different acceptor groups at position 5 (FIG. 1, complexes 2-7) was prepared using previously described methods. These analogs were screened for fluorescence in the presence of excess Mg^2+ and under buffered aqueous conditions. FIG. 1 lists fluorescence data for compounds 1-7. Spectra were acquired in 150 mM NaCl, 50 mM HEPES (pH 7.4), 25° C. with 10 μM 1-7 and 10 mM MgCl2. Excitation of all species is provided at λmax […].
Azide 8 (FIG. 2) was prepared using previously reported methods. […] In the presence of catalytic Cu(I) and ascorbic acid, 8 reacted readily at room temperature with 1-ethynylcyclohexene (9a) in DMF/4-methylpiperidine (8:2) to afford the cycloaddition product 10a in essentially quantitative yield. […] The fluorescence properties of the triazole-substituted quinolines were investigated for the products from the 1,3-dipolar cycloaddition reaction of 8 with 21 additional alkynes (9b-v) (FIG. 2).
(§2) The fluorophores were then qualitatively compared in a 96-well plate (transilluminator; λex=365 nm) to identify promising compounds (FIG. 3) and were further subjected to quantitative analysis in a fluorescence plate reader (FIG. 8). In FIG. 8, the quantum yields of selected fluorophores were calculated with reference to quinine sulphate (in […] H2SO4) as a standard (vide infra). Compound 10u has ε355=7905 cm^−1M^−1 (vide infra). The excitation and emission wavelengths of the triazole products (10b-v, λex=360-375 nm, λem=510-530 nm) were improved compared to those for Sox (1, λex=360 nm, λem=485 nm, Φ=0.342, ε355=8,247 cm^−1M^−1). Based on the preliminary screening, selected targets were then synthesized in larger quantities and the quantum yields of the corresponding hydroxyquinoline derivatives were determined. Compared to 10a (Φ=0.033) a 3.5-fold improvement in quantum yield was obtained in the case of the bromide 10u (λex=375 nm, λem=525 nm, Φ=0.111, ε355=7,905 cm^−1M^−1). In view of the fluorescent properties of this derivative, it was chosen for use as a chelation-sensitive fluorophore to prepare probes for mitogen-activated protein kinase-activated protein kinase-2 (MK2), and sarcoma kinase (Src), used as models of Ser/Thr and Tyr kinases, respectively. For the purposes of comparison, the analogous fluorescent peptides containing the original Sox chromophore were also prepared as previously described.
Fluorescence Experiments. • a. Fluorescence analysis of 8-hydroxyquinoline click products. A 96-well microtier plate was used in the experiments for preliminary examination of fluorescence properties. The overall volume in each well was 200 microliters. Individual reactions contained the crude product from the click chemistry reaction (10 micromolar dissolved in DMSO), MgCl2 (10 mM), NaCl (150 mM) and HEPES (50 mM) at 25° C. (pH 7.4). The fluorescence spectra were recorded with fixed excitation at 370 nm and emission at 525 nm. Based on the preliminary screening, selected products were then synthesized in larger quantities and the quantum yields of the corresponding hydroxyquinoline derivatives were determined.

[2] = Quantum yield determination (quinine sulphate standard); conditions: for quantum yield Φ: with reference to quinine sulphate, 4 micromolar oxine derivative, 50 mM MgCl2, 20 mM HEPES (pH 7.4)
Procedure: as §1, §2
c. Quantum yield determination. The quantum yield (Φ) was determined in 20 mM HEPES (pH 7.4). Quinine sulphate dihydrate (QS, Fluka, puriss. for fluorescence) in 0.1 M H2SO4 was used as a standard (Φ=0.55). A 4 micromolar solution of the corresponding oxine derivative with 50 mM MgCl2 was compared to a 4 micromolar solution of quinine sulfate to assure that the absorbance (A360) is less than 0.05 at identical excitation wavelengths. The following equation was used to calculate the quantum yield: Φ=IAQSΦQS/AIQS where A=A360 and I=integrated fluorescence intensity (λex=360 nm). The calculated Φ assumes that the refractive index of 0.1 M H2SO4 is identical to that of 20 mM HEPES (pH 7.4). […]

[3] = Extinction coefficient determination
Procedure: 1. Stock solutions of the peptides were prepared in doubly deionized water and concentrations were determined by UV-Vis (based on the determined extinction coefficient of the fluorophore moiety, either 1 (Sox), ε355=8247 M^−1 cm^−1 or 10u (Clk), ε360=7905 M^−1 cm^−1 in 0.1 M NaOH with 1 mM Na2EDTA). An average of the values from three separate solutions, each prepared using a different volume of the stock solution, was read on UV-Vis spectrophotometer. Purified peptide stock solutions could be stored at 4° C. for at least 6 months or −20° C. for longer periods.
b. Extinction coefficient determination. Extinction coefficients of 1 and 10u were measured in 50 mM HEPES (pH 7.0), 150 mM NaCl. The εmax values were determined by plotting absorbance at 360 nm versus concentration for four chromophore solutions with concentrations between 20 and 60 micromolar and including 1 mM MgCl2.

[4] = Observation of oxidation of the chromophore

Row | Structure (SMILES) | λem [1] | λex [1] | improvement in quantum yield compared to 10a ([2]; compared to 10a (Φ=0.033)) | quantum yield Φ [2] | extinction coefficient ε355 ([3]; Example 1, 50 mM HEPES (pH 7.0), 150 mM NaCl, 1 mM MgCl2) | extinction coefficient ε360 ([3]; in 0.1 M NaOH with 1 mM Na2EDTA) | excitation and emission wavelengths compared with 1 (in words) ([1]; 10 mM MgCl2, pH 7.4) | quantum yield compared with 1 (in words) ([2]; 10 μM compound, 10 mM MgCl2, pH 7.4) | stability of the aldehyde group (in words) [4]
1 | Oc1ccc(-n2cc(-c3ccc(Br)cc3)nn2)c2cccnc12 [Compound 10u, 8-Hydroxy-5-(4-(4-bromophenyl)-1H-1,2,3-triazol-1-yl)quinoline] | 525 nm | 375 nm | 3.5 fold | 0.111 | 7,905 cm^−1M^−1 | 7905 M⁻¹ cm⁻¹ | – | – | –
2 | Cc1ccc2c(C=O)ccc(O)c2n1 [Compound 2, 5-Carbaldehyde-8-Hydroxy-2-methylquinoline, reference compound] | – | – | – | – | – | – | shorter λem | improved quantum yield | readily oxidized
3 | Oc1ccc(-n2cc(C3=CCCCC3)nn2)c2cccnc12 [Compound 10a, 8-Hydroxy-5-(4-cyclohexenyl-1H-1,2,3-triazol-1-yl)quinoline] | 522 nm | 371 nm | – | 0.033 | – | – | – | – | –
